Data from patent US20050226879A1, “Methods and compositions related to inhibiting nuclear envelope breakdown” (priority 2002, published 2005).
Entries after “also recorded” stand apart in the source; their conditions may differ.

Columns and labels:
Type in all cases: biochemical, Xenopus laevis
[1] = test system: nuclear envelope breakdown; test: In vitro nuclear disassembly assay (nuclei assembled in Xenopus egg extract, cyclin B added); settings: for function in the nuclear disassembly assay (inhibition of nuclear envelope breakdown): synthetic peptides 44 μM, 15 minutes prior to sperm chromatin, assessed 75 and 95 minutes post cyclin, qualitative
Text: To investigate whetherNup153 participates in nuclear envelope breakdown, recombinant fragments of Nup153 were examined to determine if they exert dominant negative effects on this process in vitro. Cell-free extracts derived from Xenopus eggs were used to form synthetic nuclei around sperm chromatin. This system offers the advantage of biochemical manipulation, while being well-established to robustly recapitulate both nuclear assembly as well as nuclear disassembly in response to mitotic signals (Murray, A. W. et al., Nature 339, 280-286 (1989)). Cycloheximide was included to prevent synthesis of cyclin, thereby arresting these extracts in interphase. After nuclei were assembled, a recombinant form of stabilized cyclin B was added to initiate mitotic events. […] Detection of import cargo provided the clearest visualization of whether a nuclear envelope was intact. […] A control GST fusion protein (FIG. 7B, lanes 1 and 5) likewise had no effect (FIG. 7C, panels g and h). […] In addition, nuclear import cargo was still concentrated in nuclei under mitotic conditions, confirming both the presence and integrity of the nuclear envelope (FIG. 7C, panel o). The effect of the Nup153 zinc finger was not due to selective stability of this fragment, as equivalent levels of recombinant protein were detected in each reaction by immunoblot following the last time point (FIG. 7B, lanes 9-11).
Interphase Xenopus egg extracts were prepared using egg lysis buffer (ELB: 250 mM sucrose, 50 mM KCl, 2.5 mM MgCl2, 10 mM Hepes pH 7.4) supplemented with 1 mM dithiothreitol (DTT), 5 μg/ml cytochalasin B, aprotinin and leupeptin (10 μg/ml each), and 50 μg/ml cycloheximide (Powers, et al., In Current Protocols in Cell Biology (New York, John Wiley & Sons), pp. 11.10.11-11.11.24, (2001). Eggswere lysed by centrifugation for 15 min at 10,000 rpm. The cytoplasmic layer was collected as crude extract. For preparation of fiactionated egg extract, the crude extract was further centrifuged for 1.5 hr at 268,000 x g. The clarified supernatant was removed and further centrifuged for 1 hr at 259,000 x g to remove residual membranes. The crude extract was stored in liquid nitrogen; fractionated extract was frozen in liquid nitrogen and then stored at −80° C.
(§1) Demembranated condensed sperm chromatin was isolated from Xenopus testes as described previously (Powers, et al., In Current Protocols in Cell Biology (New York, John Wiley & Sons), pp. 11.10.11-11.11.24, (2001). For the assembly of nuclei, an ATP-generating system was added to 28 μl of crude egg extract. Sperm chromatin was added and nuclei were allowed to assemble by incubation at room temperature. After assembly for 1 hr, import substrate (NLS-HSA-RITC, prepared as in (Powers, et al., In Current Protocols in Cell Biology (New York, John Wiley & Sons), pp. 11.10.11-11.11.24, (2001)) was added to the reaction and incubated for another 30 min to assess the presence of functional pores and membrane integrity. Recombinant cyclin B with a deletion that confers stability was then added to the nuclei to initiate mitotic events (Murray, A. W., et al., Nature 339, 280-286 (1989). The role of cyclin synthesis and degradation in the control of maturation promoting factor activity Nature 339, 280-286, 1989). Samples were taken from the reaction at the indicated time points to monitor by fluorescence microscopy using DHCC (Calbiochem, San Diego, Calif.) to monitor membranes and Hoechst 33258 (Calbiochem) to monitor DNA. To examine the effects of protein fragments and antibodies on nuclear disassembly, the reagent in question was incubated with crude extract for 15 minutes at room temperature prior to the addition of sperm chromatin and energy mix. As noted, for protein fragments either 3 μg (corresponding to final concentrations of 3.3 μM, 1.7 μM, and 1.5 μM for GST, GST-N, and GST-Z respectively) or 4 μg (corresponding to final concentrations of 4.4 μM and 2 μM for GST and GST-Z respectively) was added. […]

[2] = test system: nuclear envelope breakdown; test: as above; settings: peptide added after nuclear assembly has taken place
[3] = test system: nuclear assembly and NLS-mediated import; test: Nuclear assembly and NLS import in egg extract (interphase); settings: ARF peptide 22 μM present
Description: as §1, with “DNA.” for “DNA. To examine the effects of protein fragments and antibodies on nuclear disassembly, the reagent in question was incubated with crude extract for 15 minutes at room temperature prior to the addition of sperm chromatin and energy mix. As noted, for protein fragments either 3 μg (corresponding to final concentrations of 3.3 μM, 1.7 μM, and 1.5 μM for GST, GST-N, and GST-Z respectively) or 4 μg (corresponding to final concentrations of 4.4 μM and 2 μM for GST and GST-Z respectively) was added.”

Compound: C[C@H]1CCC/C=C/[C@@H]2C[C@H](O)C[C@H]2[C@H](O)/C=C/C(=O)O1 [Brefeldin A]
- effect on nuclear envelope breakdown ([1]; Brefeldin A 0.6 μg/ml final, added 15 min prior to assembly): interferes with nuclear envelope breakdown; also recorded: very clear interference of nuclear envelope breakdown

Compound: (C)ESGELKPEDDVTVGPAQK (CESGELKPEDDVTVGPAQK; N-terminal cysteine) [immunogenic peptide]
- protective effect of anti-β-COP antibodies on inclusion of the peptide ([1]; anti-β-COP 5 μg incubated with β-COP peptide 5 μg for 15 min before addition): blocked

Compound: CEQTYRVCGGGS (CEQTLYRVCGGGS)
- function in the nuclear disassembly assay (inhibition of nuclear envelope breakdown) [1]: not inhibitory

Compound: CGEHVRPSCGGGS
- function in the nuclear disassembly assay (inhibition of nuclear envelope breakdown) [1]: did not have activity

Compound: CNNTRSPYCGGGS
- function in the nuclear disassembly assay (inhibition of nuclear envelope breakdown) [1]: not inhibitory

Compound: CTHPFTHECGGGS [ZNFPHD1]
- inhibition of nuclear envelope breakdown ([1]; synthetic form as well as displayed form): capable of inhibiting nuclear envelope breakdown
- function in the nuclear disassembly assay (inhibition of nuclear envelope breakdown) [1]: inhibitory
- function in the nuclear disassembly assay [2]: not inhibitory

Compound: EKKGFLGKFLNAF MNG (EKKGFLGKFLNAFMNG) [ARF 17-2]
- effect on nuclear disassembly ([1]; ARF peptides 22 μM, 75 minutes after cyclin addition): no significant affect

Compound: GNMFANLFKGLFGKKE [ARF peptide]
- nuclei remaining intact ([1]; ARF peptide 22 μM, 75 minutes after cyclin addition): 90%
- nuclear assembly [3]: proceeded
